What was measured:
[1] = target: T1, Adenosine receptor A3 (Homo sapiens) (UniProt P0DMS8); assay: Maximal agonist effect at human adenosine A3 receptor in CHO cells at 10 uM by the inhibition of forskolin-stimulated cAMP production; format: functional, cell-based; design: scale not given: the % may be the effect or the level left
T1 sequence (whole entry): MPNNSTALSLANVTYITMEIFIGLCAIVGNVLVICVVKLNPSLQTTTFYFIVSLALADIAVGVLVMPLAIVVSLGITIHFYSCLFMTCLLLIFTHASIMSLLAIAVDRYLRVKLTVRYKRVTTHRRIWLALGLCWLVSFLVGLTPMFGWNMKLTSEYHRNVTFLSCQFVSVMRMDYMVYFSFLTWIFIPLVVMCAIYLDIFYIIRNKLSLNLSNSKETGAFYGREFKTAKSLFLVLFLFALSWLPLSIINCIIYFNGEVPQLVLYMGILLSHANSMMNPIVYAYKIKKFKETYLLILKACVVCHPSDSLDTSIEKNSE

[2] = target: T2, Adenosine receptor A2b (Homo sapiens, UniProt P29275); assay: Agonistic effect at human adenosine A2B receptor in CHO cells; format: functional, cell-based
T2 sequence (P29275 whole entry): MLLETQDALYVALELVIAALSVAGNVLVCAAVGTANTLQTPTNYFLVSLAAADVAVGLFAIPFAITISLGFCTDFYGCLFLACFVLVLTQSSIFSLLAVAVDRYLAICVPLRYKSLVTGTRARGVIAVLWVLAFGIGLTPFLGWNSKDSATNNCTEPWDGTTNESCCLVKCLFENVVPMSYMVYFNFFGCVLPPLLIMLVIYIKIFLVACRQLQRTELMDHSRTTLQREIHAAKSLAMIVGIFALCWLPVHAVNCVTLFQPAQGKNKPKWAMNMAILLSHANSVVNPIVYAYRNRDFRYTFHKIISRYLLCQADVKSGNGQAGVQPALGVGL

[3] = target: Adenosine receptor A2a (Homo sapiens, UniProt P29274); assay: Displacement of [3H]R-PIA or [3H]CGS 21680 from human adenosine A2A receptor in CHO cells; format: cell-based
Chain of Adenosine receptor A2a (P29274 whole entry): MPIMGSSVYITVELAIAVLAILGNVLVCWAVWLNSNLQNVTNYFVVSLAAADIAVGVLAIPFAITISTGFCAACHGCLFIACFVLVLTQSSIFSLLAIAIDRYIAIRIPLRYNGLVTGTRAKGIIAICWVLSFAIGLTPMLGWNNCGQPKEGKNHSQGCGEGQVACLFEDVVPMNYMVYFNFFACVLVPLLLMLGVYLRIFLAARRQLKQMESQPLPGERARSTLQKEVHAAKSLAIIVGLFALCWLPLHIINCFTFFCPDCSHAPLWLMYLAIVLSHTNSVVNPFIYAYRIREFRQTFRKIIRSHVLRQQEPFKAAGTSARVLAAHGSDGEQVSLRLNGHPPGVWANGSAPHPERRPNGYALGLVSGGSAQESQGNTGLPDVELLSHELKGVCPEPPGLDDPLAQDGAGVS

[4] = target: T3, Adenosine receptor A3 (Homo sapiens, UniProt P0DMS8); assay: Binding affinity to human adenosine A3 receptor in CHO cells
T3 sequence (P0DMS8 whole entry): T1 sequence (whole entry)

[5] = target: T4, Adenosine receptor A3 (Rattus norvegicus, UniProt P28647); assay: Binding affinity to rat adenosine A3 receptor in CHO cells; format: cell-based
T4 sequence (P28647 whole entry): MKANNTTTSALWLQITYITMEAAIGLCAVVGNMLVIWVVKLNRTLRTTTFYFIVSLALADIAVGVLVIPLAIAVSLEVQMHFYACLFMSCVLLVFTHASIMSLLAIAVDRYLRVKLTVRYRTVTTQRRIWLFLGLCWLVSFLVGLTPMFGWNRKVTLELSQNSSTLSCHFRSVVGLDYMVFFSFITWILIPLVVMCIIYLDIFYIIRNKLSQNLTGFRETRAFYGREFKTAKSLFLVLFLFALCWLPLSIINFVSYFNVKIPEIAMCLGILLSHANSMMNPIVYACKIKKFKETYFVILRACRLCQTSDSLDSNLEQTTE

[6] = target: T5, Adenosine receptor A1 (Homo sapiens, UniProt P30542); assay: Displacement of [3H]R-PIA or [3H]CGS 21680 from human adenosine A1 receptor in CHO cells; format: cell-based
T5 sequence (P30542 whole entry): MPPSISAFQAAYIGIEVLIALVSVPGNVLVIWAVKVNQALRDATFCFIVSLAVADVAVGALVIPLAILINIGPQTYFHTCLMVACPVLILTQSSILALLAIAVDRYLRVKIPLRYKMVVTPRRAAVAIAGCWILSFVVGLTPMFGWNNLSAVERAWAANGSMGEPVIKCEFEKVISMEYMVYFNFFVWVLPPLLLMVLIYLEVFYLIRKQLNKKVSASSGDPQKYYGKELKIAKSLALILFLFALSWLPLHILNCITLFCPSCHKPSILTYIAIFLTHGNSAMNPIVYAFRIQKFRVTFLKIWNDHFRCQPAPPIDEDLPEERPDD

[7] = target: T5, Adenosine receptor A1; assay: Agonistic effect at human adenosine A1 receptor in CHO cells; format: functional, cell-based
[8] = target: T3, Adenosine receptor A3; assay: Agonistic effect at human adenosine A3 receptor in CHO cells; format: functional, cell-based
[9] = target: T6, Adenosine receptor A1 (Rattus norvegicus, UniProt P25099); assay: Binding affinity to rat adenosine A1 receptor in CHO cells
T6 sequence (P25099 whole entry): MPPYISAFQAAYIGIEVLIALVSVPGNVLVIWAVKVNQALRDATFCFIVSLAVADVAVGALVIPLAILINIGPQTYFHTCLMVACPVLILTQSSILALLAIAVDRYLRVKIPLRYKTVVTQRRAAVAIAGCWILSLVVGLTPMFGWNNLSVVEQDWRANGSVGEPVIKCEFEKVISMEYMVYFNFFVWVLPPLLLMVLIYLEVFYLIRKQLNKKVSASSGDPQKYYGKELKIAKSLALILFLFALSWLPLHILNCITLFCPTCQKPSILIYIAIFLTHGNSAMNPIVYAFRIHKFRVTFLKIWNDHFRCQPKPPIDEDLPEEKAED

Row | Activity [1] [%] | EC50 [2] [nM] | Ki [3] [nM] | Ki [4] [nM] | Ki [5] [nM] | SMILES | Ki [6] [nM] | EC50 [7] [nM] | EC50 [8] [nM] | Ki [9] [nM]
1 | 0 | – | – | – | – | OC[C@H]1O[C@@H](n2cnc3c(NC4CCCC4)nc(Cl)nc32)[C@H](O)[C@@H]1O | – | – | – | –
2 | 93 | > 10000 | 6420 | 13.1 | 10.2 | CNC(=O)C12C[C@@H]1[C@@H](n1cnc3c(NC4CCCC4)ncnc31)[C@H](O)[C@@H]2O (single isomer, unassigned) | – | – | – | –
3 | 72 | – | 462 | 240 | – | OC[C@H]1O[C@@H](n2cnc3c(NC4CCCC4)ncnc32)[C@H](O)[C@@H]1O [N6-CYCLOPENTYLADENOSINE] | – | – | – | –
4 | 112 | – | – | 112 | 229 | OC[C@H]1O[C@@H](n2cnc3c(NC4C5CCC4CC5)ncnc32)[C@H](O)[C@@H]1O (stereo partly specified) | – | – | – | –
5 | 92 | > 10000 | > 10000 | 14.6 | 9.6 | CNC(=O)C12C[C@@H]1[C@@H](n1cnc3c(NC4C5CCC4CC5)nc(Cl)nc31)[C@H](O)[C@@H]2O (single isomer, unassigned) | 190 | – | – | –

Row | SMILES | Activity [1] [%] | EC50 [2] [nM] | Ki [3] [nM] | Ki [4] [nM] | Ki [5] [nM] | Ki [6] [nM] | EC50 [7] [nM] | EC50 [8] [nM] | Ki [9] [nM]
6 | CNC(=O)C12C[C@@H]1[C@@H](n1cnc3c(NC4CCCC4)nc(Cl)nc31)[C@H](O)[C@@H]2O (single isomer, unassigned) | 101 | > 10000 | 3250 | 3.7 | – | 18.3 | 8.2 | 2.8 | 17.4

Source: ChEMBL document CHEMBL1140427, “Semi-rational design of (north)-methanocarba nucleosides as dual acting A(1) and A(3) adenosine receptor agonists: novel prototypes for cardioprotection” (J Med Chem, 2005)
